According to the supplement of paper PMC7341893:

What was measured:
Assay in all cases: growth (OD600) normalised to reference wells; higher = more growth / less inhibition
[1] = tested on: GPI15_HIP
Protocol: (§1)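 S. cerevisiae strains (wild type, SPT14 point-mutant knock-ins, HIP heterozygous and HOP homozygous deletion strains) were grown in rich medium in 96-well plates with 12-point serial dilutions of jawsamycin or clotrimazole (DMSO normalised to 2%). Growth was read as OD600 and normalised within each dilution series (NormOD, % growth). Wells set exactly to 100 are normalisation references and are left out.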

[2] = tested on: GPI1_HIP
Protocol: as §1

[3] = tested on: GPI2_HIP
Protocol: as §1

[4] = tested on: HAC1_HOP
Protocol: as §1

[5] = tested on: HO_HIP
Protocol: as §1

[6] = tested on: HO_HOP
Protocol: as §1

[7] = tested on: IRE1_HOP
Protocol: as §1

[8] = tested on: JIP3_HOP
Protocol: as §1

[9] = tested on: MID2_HOP
Protocol: as §1

[10] = tested on: MUD2_HOP
Protocol: as §1

[11] = tested on: RLM1_HOP
Protocol: as §1

[12] = tested on: SPT14(H106Y)
Protocol: as §1

[13] = tested on: SPT14(T114A)
Protocol: as §1

[14] = tested on: SPT14(V76F)
Protocol: as §1

[15] = tested on: SPT14(WT)
Protocol: as §1

[16] = tested on: SPT14_HIP
Protocol: as §1

C[C@@H]1C[C@H]1/C=C/[C@@H]1C[C@H]1[C@@H]1C[C@H]1[C@@H]1C[C@H]1[C@@H]1C[C@H]1/C=C/C=C/C(=O)NC[C@H]1O[C@@H](N2CCC(=O)NC2=O)[C@H](O)[C@@H]1O [Jawsamycin]
Conditions | growth [%]
[1], 0.125900179 µM | 96
[1], 0.26439 µM | 83.9
[1], 0.55522 µM | 14.5
[1], 1.16596 µM | 0.707
[1], 2.44852 µM | -0.181
[1], 5.14189 µM | -0.594
[1], 10.79796998 µM | -0.329
[1], 22.6757 µM | -0.355
[1], 47.619 µM | 2.02
[1], 100 µM | 3.35
[2], 0.125900179 µM | 95.1
[2], 0.26439 µM | 65.4
[2], 0.55522 µM | 3.38
[2], 1.16596 µM | 0.172
[2], 2.44852 µM | -0.0309
[2], 5.14189 µM | 0.123
[2], 10.79796998 µM | -0.0696
[2], 22.6757 µM | -0.0919
[2], 47.619 µM | 0.953
[2], 100 µM | 4.06
[3], 0.125900179 µM | 102
[3], 0.26439 µM | 78.2
[3], 0.55522 µM | 12.1
[3], 1.16596 µM | 0.957
[3], 2.44852 µM | -0.153
[3], 5.14189 µM | -0.208
[3], 10.79796998 µM | -0.242
[3], 22.6757 µM | 0.183
[3], 47.619 µM | 1.43
[3], 100 µM | 3.73
[4], 0.12590018 µM | 72.1
[4], 0.26439 µM | 23.7
[4], 0.55522 µM | 3.92
[4], 1.16596156 µM | 2.26
[4], 2.44852 µM | 0.418
[4], 5.14189 µM | 0.344
[4], 10.798 µM | 1.36
[5], 0.125900179 µM | 100.4
[5], 0.26439 µM | 96.5
[5], 0.55522 µM | 29.9
[5], 1.16596 µM | 5.52
[5], 2.44852 µM | 1.29
[5], 5.14189 µM | 0.138
[5], 10.79796998 µM | -0.0442
[5], 22.6757 µM | 0.182
[5], 47.619 µM | 5.56
[5], 100 µM | 11.6
[6], 0.12590018 µM | 97
[6], 0.26439 µM | 84
[6], 0.55522 µM | 56
[6], 1.16596156 µM | 15.1
[6], 2.44852 µM | 4.54
[6], 5.14189 µM | 1.38
[6], 10.798 µM | 8.54
[7], 0.12590018 µM | 70.1
[7], 0.26439 µM | 14.2
[7], 0.55522 µM | 2.66
[7], 1.16596156 µM | -0.118
[7], 2.44852 µM | -0.241
[7], 5.14189 µM | -0.264
[7], 10.798 µM | 0.8
[8], 0.12590018 µM | 64.5
[8], 0.26439 µM | -0.444
[8], 0.55522 µM | -0.584
[8], 1.16596156 µM | -0.756
[8], 2.44852 µM | -0.689
[8], 5.14189 µM | -0.655
[8], 10.798 µM | 0.0162
[9], 0.12590018 µM | 89.4
[9], 0.26439 µM | 0.809
[9], 0.55522 µM | -0.646
[9], 1.16596156 µM | -0.903
[9], 2.44852 µM | -0.918
[9], 5.14189 µM | -0.848
[9], 10.798 µM | -0.546
[10], 0.12590018 µM | 33.2
[10], 0.26439 µM | 0.873
[10], 0.55522 µM | -1.12
[10], 1.16596156 µM | -1.19
[10], 2.44852 µM | -0.498
[10], 5.14189 µM | -0.906
[10], 10.798 µM | -0.454
[11], 0.12590018 µM | 88
[11], 0.26439 µM | 2.22
[11], 0.55522 µM | -0.308
[11], 1.16596156 µM | -0.482
[11], 2.44852 µM | -0.568
[11], 5.14189 µM | -0.545
[11], 10.798 µM | -0.0157
[12], 0.0599525 µM | 99.9
[12], 0.125900179 µM | 99.6
[12], 0.26439 µM | 96
[12], 0.55522 µM | 91.6
[12], 1.16596 µM | 65.8
[12], 2.44852 µM | 1.98
[12], 5.14189 µM | -4.83
[12], 10.79796998 µM | -5.01
[12], 22.6757 µM | -5
[12], 47.619 µM | -2.96
[12], 100 µM | 0.649
[13], 0.0599525 µM | 96.9
[13], 0.125900179 µM | 97.4
[13], 0.26439 µM | 92.3
[13], 0.55522 µM | 86.4
[13], 1.16596 µM | 61
[13], 2.44852 µM | -0.886
[13], 5.14189 µM | -4.03
[13], 10.79796998 µM | -3.95
[13], 22.6757 µM | -3.63
[13], 47.619 µM | -2.26
[13], 100 µM | 0.0855
[14], 0.1259 µM | 101.9
[14], 0.26439 µM | 103
[14], 0.55522 µM | 104
[14], 1.16596 µM | 96.4
[14], 2.44852 µM | 100
[14], 5.14189 µM | 99
[14], 10.798 µM | 102
[14], 22.6757 µM | 102
[14], 100 µM | 74.6
[15], 0.0599525 µM | 80.5
[15], 0.125900179 µM | 17.9
[15], 0.26439 µM | -3.32
[15], 0.55522 µM | -3.82
[15], 1.16596 µM | -3.97
[15], 2.44852 µM | -3.91
[15], 5.14189 µM | -3.92
[15], 10.79796998 µM | -3.59
[15], 22.6757 µM | -3.29
[15], 47.619 µM | -1.96
[15], 100 µM | -0.804
[16], 0.125900179 µM | 108
[16], 0.26439 µM | 89.878
[16], 0.55522 µM | 21.9
[16], 1.16596 µM | 2.72
[16], 2.44852 µM | 0.0973
[16], 5.14189 µM | -0.496
[16], 10.79796998 µM | -0.548
[16], 22.6757 µM | 0.0487
[16], 47.619 µM | 2.81
[16], 100 µM | 5.21
